The source of these data is patent publication US7897588B2, “Agents and methods for enhancing bone formation” (The Regents of the University of California, priority 2003, dated 2011).

Assay [1] concerns M2-10B4 mouse marrow stromal cell line. The experiment in a line: Matrix mineralization in M2 cells (von Kossa staining, 45Ca incorporation assay). Format: cell-based. The protocol: Cells: M2-10B4 mouse marrow stromal cell line obtained from American Type Culture Collection (ATCC, Rockville, Md., U.S.A.) was derived from bone marrow stromal cells of a (C57BL/6J×C3H/HeJ) F1 mouse, and support human and murine myelopoiesis in long-term cultures (as per ATCC) and have the ability to differentiate into osteoblastic and adipocytic cells. Unless specified, these cells were cultured in RPMI 1640 containing 10% heat-inactivated FBS, and supplemented with 1 mM sodium pyruvate, 100 U/ml penicillin, and 100 […] (all from Irvine Scientific).
Von Kossa and oil red O staining—Matrix mineralization in cell monolayers was detected by silver nitrate staining as previously described. Oil red O staining for detection of adipocytes was performed as previously described.
^45Ca incorporation assay—Matrix mineralization in cell monolayers was quantified using the ^45Ca incorporation assay as previously described.
M2 cells at confluence were treated in osteogenic medium with control vehicle or 5 μM oxysterols, alone or in combination as indicated. After 14 days, mineralization was identified by a von Kossa staining, which appears black. FIG. 3C is a depiction of von Kossa staining of M2 cells exposed to various conditions.
M2 cells were treated with control vehicle (C) or a combination of 22R and 20S oxysterols at increasing concentrations. After 14 days, matrix mineralization in cultures was quantified using a ^45Ca incorporation assay. […] FIG. 3D is a bar graph depicting the effect of a combination of oxysterols at various doses on calcium incorporation in M2 cells.
Next, a combination of 22R and 20S oxysterols (RS, 2.5 μM each) were added in the presence or absence of SC as indicated. After 3 days, ALP activity was measured as described earlier. […] (B) M2 cells were treated as described in (A) and after 10 days matrix mineralization in cultures was quantified by a ^45Ca incorporation assay as described earlier. Results from a representative of three experiments are shown, reported as the mean±SD of quadruplicate determinations, normalized to protein concentration. (C) M2 cells were pretreated with 20 μM SC for 4 hours, followed by the addition of RS in the presence or absence of SC as described above. After 8 days, total RNA was isolated and analyzed for osteocalcin (Osc) and 18S rRNA expression by Northern blotting as previously described. Data from densitometric analysis of the Northern blot is shown in (D) as the average of duplicate samples, normalized to 18S rRNA. (E) M2 cells at confluence were pretreated for 2 hours with control vehicle (C), or PLA2 inhibitors ACA (25 μM) and AACOCF3 (AAC, 20 μM), in osteogenic medium. Next, a combination of 22R and 20S oxysterols (RS, 2.5 μM) was added in the presence or absence of the inhibitors as indicated. After 3 days, ALP activity was measured as previously described. Data from a representative of three experiments are shown, reported as the mean±SD of quadruplicate determinations, normalized to protein concentration (p<0.01 for RS vs. RS+ACA and RS+AAC). (F) M2 cells were treated as described in (E). After 10 days, matrix minerliazation in cultures was quantified using a ^45Ca incorporation assay as previously described. Results from a representative of three experiments are shown, reported as the mean of quadruplicate determinations±SD, normalized to protein concentration (p<0.01 for RS vs. RS+ACA and RS+AAC).
(A) M2 cells at confluence were pretreated for four hours with RPMI containing 1% FBS, followed by treatment with control vehicle or 5 μM 20S oxysterol for 1, 4, or 8 hours. Next total cell extracts were prepared and analyzed for levels of native or phosphorylated ERK (pERK) using specific antibodies as previously described.

The subject of the next assay is osteocalcin mRNA. The experiment in a line: Northern blot for osteocalcin mRNA in M2 cells. Format: cell-based, mouse. The procedure: RNA isolation and Northern blot analysis—Following treatment of cells under appropriate experimental conditions, total RNA was isolated using the RNA isolation kit from Stratagene (La Jolla, Calif., U.S.A.). Total RNA ([…]) was run on a 1% agarose/formaldehyde gel and transferred to Duralon-UV membranes (Strategene, Calif., U.S.A.) and cross-linked with UV light. The membranes were hybridized overnight at 60 degree C. with ^32P-labeled mouse osteocalcin cDNA probe, mouse lipoprotein lipase (LPL), mouse adipocyte protein 2 (aP2) PCR-generated probes, human 28S or 18S rRNA probes obtained from Geneka Biotechnology (Montreal, Quebec, Canada) and Maxim Biotech (San Francisco, Calif., U.S.A.), respectively. […] Following hybridization, the blots were washed twice at room temperature with 2×SSC+0.1% SDS, and then twice at 60 degree C. with 0.5×SSC+0.1% SDS, and exposed to X-ray film. The extent of gene induction was determined by densitometry.
After 4 and 8 days, total RNA from duplicate samples was isolated and analyzed for osteocalcin (Osc) and 28S rRNA expression by Northern blotting as described. FIG. 3E is a radiogram of Northern blotting for osteocalcin mRNA in M2 cells exposed to a control or combination of oxysterols for 4 or 8 days. FIG. 3F is a bar graph depicting the relative demsometric units of osteocalcin mRNA in M2 cells exposed to a control or combination of oxysterols for 4 or 8 days. Data from densitometric analysis of the Northern blot is shown in (F) as the average of duplicate samples, normalized to 28S rRNA.
Next, a combination of 22R and 20S oxysterols (RS, 2.5 μM each) were added in the presence or absence of SC as indicated. After 3 days, ALP activity was measured as described earlier. […] (B) M2 cells were treated as described in (A) and after 10 days matrix mineralization in cultures was quantified by a ^45Ca incorporation assay as described earlier. Results from a representative of three experiments are shown, reported as the mean±SD of quadruplicate determinations, normalized to protein concentration. (C) M2 cells were pretreated with 20 μM SC for 4 hours, followed by the addition of RS in the presence or absence of SC as described above. After 8 days, total RNA was isolated and analyzed for osteocalcin (Osc) and 18S rRNA expression by Northern blotting as previously described. Data from densitometric analysis of the Northern blot is shown in (D) as the average of duplicate samples, normalized to 18S rRNA. (E) M2 cells at confluence were pretreated for 2 hours with control vehicle (C), or PLA2 inhibitors ACA (25 μM) and AACOCF3 (AAC, 20 μM), in osteogenic medium. […] After 3 days, ALP activity was measured as previously described. […]

The mark [2] stands for this setting: individual oxysterols 0.5-10 μM or combinations, up to 14 days.
[3] abbreviates: individual oxysterols 0.5-10 μM up to 14 days, combinations 5 μM each, 4 and 8 days.

Turning to `CC(C)CCC[C@](C)(O)[C@H]1CC[C@H]2[C@@H]3CC=C4C[C@@H](O)CC[C@]4(C)[C@H]3CC[C@@]21C` [20S, 20(S)-hydroxycholesterol], the induction of mineralization result in assay [1] (setting [2]) is listed as “unable to induce”. The “induction of osteocalcin gene expression” value in the assay on osteocalcin mRNA (setting [3]) is on record as “unable to induce”.
Turning to `CC(C)CC[C@H](O)[C@@H](C)[C@H]1CC[C@H]2[C@@H]3CC=C4C[C@@H](O)CC[C@]4(C)[C@H]3CC[C@]12C` [22S, 22(S)-hydroxycholesterol], the induction of mineralization entry in assay [1] (setting [2]) is “unable to induce”. For the same compound, the “induction of osteocalcin gene expression” value in the assay with osteocalcin mRNA (setting [3]) was “unable to induce”.
Regarding `CC(C)CC[C@@H](O)[C@@H](C)[C@H]1CC[C@H]2[C@@H]3CC=C4C[C@@H](O)CC[C@]4(C)[C@H]3CC[C@]12C` [22R, 22(R)-hydroxycholesterol], the induction of mineralization entry in assay [1] (setting [2]) was “unable to induce”. Besides, the “induction of osteocalcin gene expression” value with osteocalcin mRNA (setting [3]) is on record as “unable to induce”.
Consider `O=S(=O)(c1ccccc1)N(CC(F)(F)F)c1ccc(C(O)(C(F)(F)F)C(F)(F)F)cc1` [TO, TO-901317], for which the induction of mineralization result in assay [1] (TO treatment, after 10 days) was “did not induce”. Further, in the assay with osteocalcin mRNA (TO treatment, after 10 days), the “induction of osteocalcin gene expression” value is recorded as “did not induce”.
